Assay results published in article PMC4376724, “Differential Phenotypic and Functional Profiles of TcCA-2 -Specific Cytotoxic CD8^+ T Cells in the Asymptomatic versus Cardiac Phase in Chagasic Patients” (PLoS ONE, 2015).

Test system: PBMC from HLA-A*02:01 Chagas disease patients and healthy donors
Assay: Granzyme B ELISPOT in PBMC
Format: cell-based, human
Details: 30 h, non-peptide control spots subtracted
Method: For the screening of the recognition of TcCA-2 epitopes by Chagas disease patients, 10 HLA-A*02:01 adult patients in the asymptomatic phase of the disease (IND) were enrolled. For cytotoxicity, functional activity determinations and phenotypic characterization another group of 19 HLA-A*02:01 adults Chagas disease patients and 9 healthy donors were analyzed. These patients were at the chronic stage of the disease and were considered to be at the asymptomatic phase (IND, n = 8) if there was no evidence of having cardiac or gastrointestinal disorders. Chronic Chagas cardiomyopathy patients (CCC, n = 11) were stratified into G1 to G3 stages following Kuschnir classification according to clinical criteria and radiological, electrocardiographic and echocardiography analyses. The number of patients was the one recommended by the Hospital Ethical Committee. […] The patients were enrolled in both studies (functional and phenotypic characterization, IND n = 6 and CCC n = 7) when the available number of purified PBMC (limited by the cellular number isolated from each subject) was enough for both analyses. Another four CCC patients had to be enrolled to perform the phenotypic analysis in order to reach statistical significance.
The frequency of Granzyme B (GzB) producing cells was evaluated by ELISPOT assays using cryopreserved PBMC from Chagas disease patients and healthy donors as control. This protocol was carried out as described in [20]. Briefly, 96-well PVDF membrane-bottom plates (Millipore) were pre-wetted with 35% ethanol and washed five times with PBS. Subsequently, plates were coated with 100 μL of anti-GzB (5 μg/mL) monoclonal antibody (Mabtech) and incubated overnight at 4°C. Plates were washed with PBS and incubated with 200 μL/well of blocking solution (RPMI-1640-10% FCS) at room temperature for 30 minutes. Afterwards, 5 × 10^4 PBMC/well were added and incubated with 1 μM of each peptide for 30 h at 37°C with 5% CO2, in triplicates. As a positive control, the PBMC were stimulated with 50 ng/ml phorbol 12-myristate 13-acetate (PMA, Sigma) and 500 ng/ml ionomycin (Sigma), or 10 μg/mL of phytohaemaglutinin (PHA, Sigma). Supernatants were harvested and aliquoted at -80°C for subsequent cytokine secretion profile determination. After five washes, 100 μL/well of a 1 μg/mL solution of biotinylated GzB-specific antibody (Mabtech) was added in 0.5% iFCS in PBS, and the plates were incubated for 2 h at room temperature. Wells were extensively washed with PBS and incubated with 100 μL/well streptavidin-alkaline phosphatase (Sigma) at dilution of 1:6000 for 1 h at room temperature. After washing (5x) with PBS, 50 μL/well of substrate solution (NBT-BCIP substrate, Sigma) were added. The wells were incubated for 20–30 min at room temperature in the dark. The reaction was stopped by rinsing the plates with cold tap water. The spots were visualized in an AXIO PLAN 2 Imagine microscope and quantified using KS ELISPOT software. The results are expressed as the number of peptide-induced spots forming cell (SFC) x10^6 PBMC after subtracting the spot number of peptide un-stimulated PBMCs (basal response). The results were considered positive when a minimum of 20 SFCx10^6 PBMCs and of at least over twofold basal spot numbers were detected.
The cytotoxic activity of the CD8^+ T cells specific for these four TcCA-2-derived epitopes was evaluated by secretion of GzB through ELISPOT assays. Thus, PBMC from 15 HLA-A*02:01 chagasic patients (8 IND and 7 CCC) and 9 healthy donors were incubated with the peptides under study. A positive GzB response was detected in 3 patients (2 IND and 1 CCC) out of 10 in response to incubation with the TcCA-2_657-666 peptide, 5 patients (3 IND and 2 CCC) out of 14 in response to the TcCA-2_442-451 peptide, 3 patients (3 CCC) out of 14 in response to the TcCA-2_607-615 peptide and 2 patients (2 IND) out of 11 in response to the TcCA-2_273-281 peptide (Table 3). Cytotoxic activities were not detected in any healthy donor. […]

[1] = PBMC of patient CCC I 456, 1 μM peptide
[2] = PBMC of patient CCC I 770, 1 μM peptide
[3] = PBMC of patient CCC I 861, 1 μM peptide
[4] = PBMC of patient CCC I 884, 1 μM peptide
[5] = PBMC of patient CCC III 509, 1 μM peptide
[6] = PBMC of patient IND 365, 1 μM peptide
[7] = PBMC of patient IND 388, 1 μM peptide
[8] = PBMC of patient IND 510, 1 μM peptide
[9] = PBMC of patient IND 535, 1 μM peptide
[10] = PBMC of patient IND 571, 1 μM peptide
[11] = PBMC of patient IND 917, 1 μM peptide
[12] = PBMC of subject HD 001, 1 μM peptide
[13] = PBMC of subject HD 004, 1 μM peptide
[14] = PBMC of subject HD 005, 1 μM peptide
[15] = PBMC of subject HD 006, 1 μM peptide
[16] = PBMC of subject HD 008, 1 μM peptide
[17] = PBMC of subject HD 011, 1 μM peptide
[18] = PBMC of subject HD 340, 1 μM peptide
[19] = PBMC of subject HD 664, 1 μM peptide
[20] = PBMC of patient CCC II 142, 1 μM peptide
[21] = PBMC of patient CCC III 797, 1 μM peptide
[22] = PBMC of patient IND 265, 1 μM peptide
[23] = PBMC of patient IND 283, 1 μM peptide

Sequence | GzB [1] [SFC/10^6] | GzB [2] [SFC/10^6] | GzB [3] [SFC/10^6] | GzB [4] [SFC/10^6] | GzB [5] [SFC/10^6] | GzB [6] [SFC/10^6] | GzB [7] [SFC/10^6] | GzB [8] [SFC/10^6] | GzB [9] [SFC/10^6] | GzB [10] [SFC/10^6] | GzB [11] [SFC/10^6] | GzB [12] [SFC/10^6] | GzB [13] [SFC/10^6] | GzB [14] [SFC/10^6] | GzB [15] [SFC/10^6] | GzB [16] [SFC/10^6] | GzB [17] [SFC/10^6] | GzB [18] [SFC/10^6] | GzB [19] [SFC/10^6] | GzB [20] [SFC/10^6] | further results
AAAGDKLSL [TcCA-2_273-281] | 13 | -7 | 8 | 7 | 0 | 7 | 33 | -20 | -27 | 67 | 13 | 1 | 0 | -47 | -7 | -47 | -20 | 0 | 0 | – | –
ALQVTNHRYL [TcCA-2_657-666] | – | -7 | 50 | 0 | 0 | 0 | 7 | -7 | 67 | 83 | -10 | 0 | -7 | -40 | 0 | -47 | -7 | 1 | 0 | – | GzB (PBMC of subject HD 017, 1 μM peptide): 0 SFC/10^6
ALRNLRVFL [TcCA-2_607-615] | 13 | 0 | -8 | 0 | 25 | 7 | 13 | 13 | -7 | – | -20 | 0 | -7 | -47 | 7 | -70 | -7 | 0 | 0 | 53 | GzB [21]: 27 SFC/10^6; GzB [22]: -100 SFC/10^6; GzB [23]: -20 SFC/10^6
TVFDASRSTV [TcCA-2_442-451] | -7 | 13 | 0 | 7 | 50 | 27 | 0 | 0 | -13 | – | 40 | 0 | 0 | -40 | -7 | -73 | -20 | 1 | 1 | 80 | GzB [21]: 7 SFC/10^6; GzB [22]: -13 SFC/10^6; GzB [23]: 47 SFC/10^6
